The subject of data set [1] is phospho-PKCζ. The experiment in a line: TNF-α induced PKCζ phosphorylation in MM1.S cells. It is filed as cell-based, human. The following applies: pre-treated 3 hours. As for the experimental part: (§1) Compound 3 was tested for its capacity to block MM-stimulated signaling in marrow stromal cells, thereby resulting in less bone destruction and MM growth. The effects of the compound 3 on GFP-labeled MM1.S myeloma cell growth with/without stromal cells, IL-6 and VCAM-1 expression on stromal cells induced by TNF-α and OCL formation, and TNF-α induced PKCζ phosphorylation, the specific kinase enzyme activated p62-ZZ, were examined. GFP-labeled MM1.S myeloma cells or normal human CFU-GM, a source of OCL precursors, were then co-cultured with human stromal cells with the p62-ZZ inhibitor. […] VCAM-1 expression and IL-6 production induced by TNF-α on stromal cells was blocked by 30% and 90% respectively compared to vehicle levels. Furthermore, TNF-α induced PKC, phosphorylation blocked was in stromal cells and MM1.S when pre-treated with this p62-ZZ inhibitory compound for 3 hours.

Data set [2] has as its system CD138(+) primary myeloma cells. The experiment in a line: CD138(+) primary myeloma cell proliferation, MTT assay. It counts as cell-based, human. The following applies: 48 h, FIG. 4B. As for the experimental part:
(§2) FIG. 4A-C: 4A. Effect of p62-ZZ inhibitor #3 on myeloma cell growth. MM cell growth was assayed by MTT assay. Data are shown as mean±SD (n=5). FIG. 4B. MTT assay of CD138(+) primary myeloma cells. Data are shown as mean±SD (n=5). FIG. 4C. Effects of p62-ZZ inhibitors on human stromal cell growth. Primary human stromal cells (5×10^3/well) were cultured with 10 μM of p62-ZZ inhibitor (#1-6) containing 10% FCS in IMDM for 48 hours. Stromal cells growth was assayed by MTT assay. Data are shown as the mean±SD (n=5). *P<0.01 compared to vehicle treated culture. MM1.S (3×10^5 cells/well) or CD138 (+) (1×10^5 cells/well) primary myeloma cells were incubated in 96-well plates in the presence of RPMI-1640-10% FCS and various concentrations of p62-ZZ inhibitor #3 at 37° C. 5% CO2 for 48 h to determine the IC50 for inhibiting myeloma cell proliferation.
(Tetrazolium dyes change colour on reduction, which living cells bring about.)

Data set [3] in a line: In vivo toxicity, single dose and multidose MTD study. Here is the method:
FIG. 10A-D: 10A. Single dose acute toxicity study by Up/Down Methods. Body weights of the mice following dosing. FIG. 10B. Mean body weights of mice during multidose MTD study. Data are shown as mean±SD for 5 mice. FIG. 10C. Median body weight of mice during multidose MTD study. FIG. 10D. Plasma concentrations p62-ZZ antagonist in pilot mice after 100 mg/kg IV.
Preliminary in vivo studies of the p62-ZZ antagonist #3 were performed 5 to determine the toxicity, multiple doses MTD and plasma concentration of the antagonist given IV. For the pilot PK study the prototype p62-ZZ antagonist (compound #3) was used as an internal standard for Mass spectroscopy assays.

For data set [4], the system named is GFP-labeled human myeloma MM1.S cells. Briefly: GFP-labeled MM1.S myeloma cell growth with/without stromal cells, fluorescence microscopy. The following applies: 10 μM, 72 hours. It is filed as cell-based. As for the experimental part: FIG. 3 is a graph depicting MM cell growth inhibition. Data is shown as the mean±SD (n=5). *: P<0.01 compared to no-inhibitor cultures without stromal cells. **: P<0.01 compared to no-treatment co-cultured with stromal cells.
as §1, with “inhibitor. The 10 μM of inhibitor compound 3 blocked MM cell growth by 90% compared to vehicle (0.1% DMSO).” for “inhibitor.”
Primary human bone marrow stromal cells were maintained in 10% FCS-IMDM. Stromal cells (1.5×10^3 cells/well) were cultured one day prior to the start of co-culture. Green fluorescent protein (GFP)-labeled human myeloma MM1.S cells (7.5×10^3 cells/well) were then cultured with/without stromal cells in the presence or absence of the p62-ZZ inhibitors (#1-6) for 72 hours. MM cell growth was determined by fluorescence microscopy.

The test system of a further data set is MM1.S myeloma cell line. Briefly: MM1.S myeloma cell proliferation, MTT assay. It is filed as cell-based, human. The settings on record: 48 h. Here is the method:
as §2

Data set [5] deals with phospho-PKCζ. The experiment in a line: TNF-α induced PKCζ phosphorylation in marrow stromal cells, Western blot. It counts as cell-based, human or mouse. The following applies: pre-treated 3 hours, 10 ng/ml TNF-α 5 min. As for the experimental part:
FIG. 6. The effect of p62-ZZ Inhibitors on phospho-PKCζ activation by TNFα stimulated MM patient and mouse marrow stromal cells. For assay of phospho-PKCz, cells were stimulated with 10 ng/ml of TNFα for 5 min and cell lysates were collected. The phospho PKCζ was assayed by Western blot using anti-phospho PKCz anti-body (Cell Signaling). Phospho-PKCζ is an unique downstream signal activated by interactions with the p62-ZZ domain. Therefore, we examined whether p62-ZZ inhibitor #3 blocked its phosphorylation. Marrow stromal cells derived from patients with multiple myeloma or mouse stromal cells were cultured in 10% FBS IMDM and then pre-treated with various p62-ZZ inhibitors for 3 hours. For assay of phospho-PKCζ, cells were stimulated with 10 ng/ml of TNF-a for 5 min and the cell lysates were collected. Phospho PKCζ was assayed by Western blot using an anti-phospho PKCζ anti-body (Cell Signaling). TNF-α induced PKCζ phosphorylation in stromal cells was blocked when the cells were pre-treated with p62-ZZ inhibitor #3 for 3 hours.
(A western blot detects proteins with antibodies after separation by electrophoresis.)

This is an account of results in US11739053B2, “P62-ZZ chemical inhibitor” (ID4PHARMA, LLC, priority 2011, dated 2023).

Structures are written as SMILES.

What is called IC50 is the midpoint of a concentration-inhibition curve. The low end stands for inhibition by little substance, the high end for a need for much substance. On to `OCCNCc1ccc(OCc2ccccc2)c(OCc2ccccc2)c1` [Compound 3, 2-[[3,4-bis(phenylmethoxy)phenyl]methylamino]ethanol], for which the “TNF-α induced PKCζ phosphorylation in MM1.S” value in the data set on phospho-PKCζ [1] was “blocked”. Also, the “growth of CD138(+) primary myeloma cells (result in words)” value in data set [2] is “directly inhibited”. Besides, the “effect on body weight” value in data set [3] (doses up to 100 mg/kg, single dose or qdx5/day, up to 20 days) is given as “no effect”. In addition, the “gross pathology of brain, liver, kidney tissue” value in data set [3] (mice of the in vivo studies) is listed as “no gross pathology”. Moreover, the “MM cell growth (result in words)” value in data set [4] (FIG. 3) is “directly blocked MM cell growth”. Besides, the “MM cell growth blocked compared to vehicle” value in data set [4] (vs vehicle (0.1% DMSO)) is 90%. In the data set on MM1.S myeloma cell line (FIG. 4A), the “growth of MM1.S myeloma cell line (result in words)” value is “directly inhibited”. Besides, the IC50 in the data set on MM1.S myeloma cell line (Homo sapiens, MM1.S) was found to be 6.19 µM. Also, the “TNF-α induced PKCζ phosphorylation in stromal cells” value in the data set with phospho-PKCζ [5] is “blocked”.
